Legend:
SMO (smoothened) [1] = target: T1, SMO (smoothened) (Homo sapiens, UniProt Q99835); assay: BODIPY-cyclopamine competitive displacement on fixed U2OS-Smo cells (fluorescence imaging), […] solamargine; format: cell-based
T1 construct: human Smo protein stably overexpressed in U2OS cells

SMO (smoothened) [2] = target: T1, SMO (smoothened); assay: BODIPY-cyclopamine competitive displacement on fixed U2OS-Smo cells (fluorescence imaging), […] vismodegib; format: cell-based

T1 sequence (Q99835 28-787): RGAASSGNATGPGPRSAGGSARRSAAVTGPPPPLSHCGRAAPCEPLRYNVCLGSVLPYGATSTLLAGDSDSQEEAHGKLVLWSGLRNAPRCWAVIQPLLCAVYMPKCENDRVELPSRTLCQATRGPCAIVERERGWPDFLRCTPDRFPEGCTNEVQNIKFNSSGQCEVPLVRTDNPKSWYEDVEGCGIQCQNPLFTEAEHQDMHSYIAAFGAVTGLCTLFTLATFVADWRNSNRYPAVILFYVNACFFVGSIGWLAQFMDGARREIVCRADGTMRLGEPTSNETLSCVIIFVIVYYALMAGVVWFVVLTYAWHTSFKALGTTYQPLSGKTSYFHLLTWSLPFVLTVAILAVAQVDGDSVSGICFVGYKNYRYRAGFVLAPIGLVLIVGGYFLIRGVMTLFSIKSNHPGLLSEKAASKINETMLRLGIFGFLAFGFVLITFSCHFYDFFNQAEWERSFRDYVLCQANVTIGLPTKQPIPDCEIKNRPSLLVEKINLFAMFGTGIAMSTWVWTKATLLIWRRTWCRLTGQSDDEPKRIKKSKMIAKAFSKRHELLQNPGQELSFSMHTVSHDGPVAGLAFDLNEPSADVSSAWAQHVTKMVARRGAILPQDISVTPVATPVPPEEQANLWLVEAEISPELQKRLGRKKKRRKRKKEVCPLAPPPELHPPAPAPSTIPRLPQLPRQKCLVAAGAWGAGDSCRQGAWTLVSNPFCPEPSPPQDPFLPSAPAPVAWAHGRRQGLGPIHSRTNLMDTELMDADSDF

Row | Structure (SMILES) | BODIPY-cyclopamine competitive displacement on fixed U2OS-Smo cells (fluorescenc) (SMO (smoothened) [1]) | BODIPY-cyclopamine competitive displacement on fixed U2OS-Smo cells (fluorescenc) (SMO (smoothened) [2])
1 | C[C@@H]1CC[C@@]2(NC1)O[C@H]1C[C@H]3[C@@H]4CC=C5C[C@@H](O[C@@H]6O[C@H](CO)[C@@H](O[C@@H]7O[C@@H](C)[C@H](O)[C@@H](O)[C@H]7O)[C@H](O)[C@H]6O[C@@H]6O[C@@H](C)[C@H](O)[C@@H](O)[C@H]6O)CC[C@]5(C)[C@H]4CC[C@]3(C)[C@H]1[C@@H]2C [Solamargine] | fluorescent signaling of BODIPY-cyclopamine wasalso suppressed by Solamargine (Figure 4C), suggesting the inhibitory binding of Solamargine to SMO | 
2 | CS(=O)(=O)c1ccc(C(=O)Nc2ccc(Cl)c(-c3ccccn3)c2)c(Cl)c1 [vismodegib] |  | vismodegib can directly bind to SMO and competitively remove BODIPY-cyclopamine from SMO

Reference: publication PMC9399411, “Identification of solamargine as a cisplatin sensitizer through phenotypical screening in cisplatin-resistant NSCLC organoids” (Frontiers in Pharmacology, 2022)
